Measured values: patent US5296495A, “Thiazolylbenzofuran derivatives and pharmaceutical composition comprising the same” (Fujisawa Pharmaceutical Co., Ltd., priority 1991, dated 1994)
Where a name gives a salt, the structure may show the parent alone.

Target: T1, Leukotriene D4 receptor (Cavia porcellus, UniProt Q2NNR5)
T1 construct: The trachea and lung were removed; from tissue; host or cells: guinea pig (male Hartley) trachea and lung, crude membrane fraction
T1 sequence (Q2NNR5 1-340): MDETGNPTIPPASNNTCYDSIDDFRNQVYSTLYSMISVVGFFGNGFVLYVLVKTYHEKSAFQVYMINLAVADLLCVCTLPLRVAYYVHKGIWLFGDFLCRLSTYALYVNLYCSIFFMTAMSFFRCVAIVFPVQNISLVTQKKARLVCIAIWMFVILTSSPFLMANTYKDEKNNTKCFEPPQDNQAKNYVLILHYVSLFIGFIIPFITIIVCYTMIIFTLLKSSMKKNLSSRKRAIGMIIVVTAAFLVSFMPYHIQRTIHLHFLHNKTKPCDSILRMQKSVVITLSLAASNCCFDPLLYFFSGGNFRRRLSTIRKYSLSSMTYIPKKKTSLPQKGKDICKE
Assay: 3H-Leukotriene D4 receptor binding (guinea pig crude lung membrane)
Conditions: 3H-Leukotriene D4 (0.3 nM), pH 7.5, 25° C., 30 minutes
Description: ^3 H-Leukotriene D4 receptor binding (i) Test Method (a) Crude lung membrane preparation Male Hartly strain guinea pigs were sacrificed by decapitation. The trachea and lung were removed and homogenized buffer (0.25M sucrose, 10 mM Tris-HCl pH 7.5, 0.1 mM EDTA) by using Polytoron (Kinematica). The homogenate was centrifuged (1000×g, 10 min) to remove tissue clumps and the supernatant was centrifuges (14000×g, 20 min) to yield pellets. The pellets were resuspended in buffer (5 mM Tris-HCl pH 7.5), homogenized with a teflon homogenizer and centrifuged (14000×g, 20 min) to yield pellets which were referred to as crude membrane fractions. The obtained pellets were stored at -70° C. until use. (b) ^3 H-Leukotriene D4 binding to preparation membrane Frozen crude membrane fractions were thawed and resuspended in Medium 1 (10 mM Tris-HCl pH 7.5, 10 mM CaCl2, 10 mM MgCl2, 5 mM cysteine, 5 mM glycine). In binding assays, ^3 H-Leukotriene D4 (0.3 nM) and drug were incubated with 100 μl of the membrane preparation in Medium 1 at 25° C. for 30 minutes in a final volume of 500 μl. Separation of receptor-bound from free ^3 H-Leukotriene D4 is achieved by immediate filtration through Whatman GF/B filters under vacuum and washed three times with 5 ml of ice-cold buffer (10 mM Tris-HCl pH 7.5). Non-specific binding was defined as binding in the presence of 1 μM Leukotriene D4. The radioactivity retained on rinsed filters was determined by a liquid-scintillation counter (Packerd TRI-CARB 4530).

How did the IC50 turn out when `CC(C)(C)c1csc(-c2cc3cc(OCc4cccc(-c5nnn[nH]5)c4)ccc3o2)n1` [13-2), 5-{3-[2-(4-tert-Butylthiazol-2-yl)benzofuran-5-yloxymethyl]phenyl}-1H-tetrazole] was run?
Its IC50 is 17.8 nM.

How did the IC50 turn out when `CC(C)(Cc1ccc2oc(-c3nc(C(C)(C)C)cs3)cc2c1)C(=O)Nc1nnn[nH]1` [19-2), 4-tert-Butyl-2-[5-{2-methyl-2-(1H-tetrazol-5-yl)carbamoylpropyl}benzofuran-2-yl]thiazole] was run?
The IC50 was 67.7 nM.

For `CC(C)(C)c1csc(-c2cc3cc(OCc4ccccc4Cc4nnn[nH]4)ccc3o2)n1` [Example 12, 5-{2-(2-(4-tert-butylthiazol-2-yl)benzofuran-5-yloxymethyl]phenylmethyl}-1H-tetrazole], which IC50 is on record?
The IC50 was 38.2 nM.

Which IC50 does the source give for `Cc1ccccc1S(=O)(=O)NC(=O)c1ccccc1COc1ccc2oc(-c3nc(C(C)(C)C)cs3)cc2c1` [Example 18, 4-tert-butyl-2-{5-[2-(2-methylbenzenesulfonamidocarbonyl)phenylmethoxy]benzofuran-2-yl}thiazole] here?
The IC50 was 48.8 nM.

With `CC(C)(C)c1csc(-c2cc3cc(OCc4ccccc4CC(=O)O)ccc3o2)n1` [Example 51, 4-tert-butyl-2-[5-(2-carboxymethylphenylmethoxy)benzofuran-2-yl]thiazole hydrochloride] as the compound, how does the IC50 read?
Its IC50 is 13.8 nM.
